{"source": "paper PMC3086427", "about": "(Clinical cancer research : an official journal of the …, 2008)", "key": {"[1]": {"details": "in vivo"}, "colorectal cancer": {"test_system": "colorectal cancer", "details": "5-FU chemotherapy regimens, advanced-stage CRC; cited from earlier work"}, "[2]": {"details": "cited from earlier work"}, "clinical": {"assay": "clinical", "details": "human, in vivo, po; for half-life: T1/2"}, "phosphorylated EGFR": {"test_system": "phosphorylated EGFR", "details": "25 mg EKB-569 with full-dose Irinotecan and infusional 5-FU; cited from earlier work"}, "[3]": {"details": "p.o., continuous schedule, cited from earlier work"}, "[4]": {"assay": "Plasma pharmacokinetics of EKB-569 and its N-desmethyl metabolite at the MTD"}}, "note": "Read-outs that look alike come from different tables or passages of the source.", "data": [{"compound": "O=c1[nH]cc(F)c(=O)[nH]1", "note": "[5-FU, 5-fluorouracil]", "values": [{"measurement": "increase in AUC[0-t] in combination with EKB-569 versus capecitabine alone", "setting": "[1]; human", "result": 88, "unit": "%"}, {"measurement": "increase in AUC[0-∞] in combination with EKB-569 versus capecitabine alone", "setting": "[1]; human", "result": 81, "unit": "%"}, {"measurement": "T1/2", "setting": "[1]; human, po", "result": "0.73 ± 0.17", "unit": "h"}, {"measurement": "Tmax", "setting": "[1]; human, po", "result": "2.00 (0.50–4.00) h"}, {"measurement": "objective response rate", "setting": "colorectal cancer", "result": "~ 20%"}, {"measurement": "increase in 5-FU exposure with continual administration of capecitabine", "setting": "[2]; alone or with other anticancer agents, from no increase upward", "result": "≤ 83", "unit": "%"}, {"measurement": "interpatient variability of 5-FU AUC", "setting": "[2]; continued daily dosing of capecitabine, day 14", "result": 85, "unit": "%"}, {"measurement": "AUC of 5-FU on day 14 higher than after a single dose", "setting": "[2]; continued daily dosing of capecitabine", "result": 34, "unit": "%"}]}, {"compound": "C[C@H]1O[C@@H](n2cc(F)c(=O)[nH]c2=O)[C@H](O)[C@@H]1O", "note": "[5′-DFUR, 5′-deoxy-5-fluorouridine]", "values": [{"measurement": "increase in AUC[0-t] in combination with EKB-569 versus capecitabine alone", "setting": "[1]; human", "result": 28, "unit": "%"}, {"measurement": "increase in AUC[0-∞] in combination with EKB-569 versus capecitabine alone", "setting": "[1]; human", "result": 31, "unit": "%"}, {"measurement": "half-life", "setting": "clinical", "result": "0.72 ± 0.14", "unit": "h"}, {"measurement": "Tmax", "setting": "clinical", "result": 2, "unit": "h"}]}, {"compound": "CCOc1cc2ncc(C#N)c(Nc3ccc(F)c(Cl)c3)c2cc1NC(=O)/C=C/CN(C)C", "note": "[EKB-569]", "values": [{"measurement": "patients who required a dose reduction of the agent at the MTD", "setting": "EKB-569 50 mg daily and capecitabine 1,000 mg/m^2 twice daily", "result": "four"}, {"measurement": "MTD of EKB-569 combined with capecitabine", "setting": "daily, p.o., 21-day cycle, with capecitabine 1,000 mg/m^2 twice daily", "result": 50, "unit": "mg"}, {"measurement": "inhibition of phosphorylated EGFR and downstream signaling pathways in skin and tumor samples", "setting": "phosphorylated EGFR", "result": "complete inhibition"}, {"measurement": "well-tolerated dose, single agent", "setting": "[3]; patients with advanced solid tumors", "result": "up to 75 mg per day"}, {"measurement": "principal toxicities, single agent", "setting": "[3]", "result": "diarrhea and skin rash"}, {"measurement": "Cl/F (oral clearance)", "setting": "[4]; day 8, 50 mg EKB-569 p.o. daily with 1,000 mg/m^2 capecitabine, mean ± SD", "result": "57 ± 24", "unit": "L/h"}, {"measurement": "coefficient of variation values for Cmax and AUC (intersubject variability)", "setting": "[4]; day 8, MTD", "result": "< 40", "unit": "%"}, {"measurement": "half-life", "setting": "[4]; human, plasma, po", "result": "16.6 ± 3.7", "unit": "h"}]}, {"compound": "CCOc1cc2ncc(C#N)c(Nc3ccc(F)c(Cl)c3)c2cc1NC(=O)/C=C/CNC", "note": "[N-desmethyl EKB-569]", "values": [{"measurement": "AUC", "setting": "[4]; human, in vivo, po", "result": "64.4 ± 43.3", "unit": "ng·h/mL"}, {"measurement": "Cmax", "setting": "[4]; human, in vivo, po", "result": "4.2 ± 3.2", "unit": "ng/mL"}, {"measurement": "T1/2", "setting": "[4]; human, in vivo, po", "result": "24.1 ± 9.2", "unit": "h"}, {"measurement": "Tmax", "setting": "[4]; human, in vivo, po", "result": "3.5 (2–6) h"}]}, {"compound": "CCCCCOC(=O)Nc1nc(=O)n([C@@H]2O[C@H](C)[C@@H](O)[C@H]2O)cc1F", "note": "[capecitabine, reference compound]", "values": [{"measurement": "dose reductions of the agent secondary to diarrhea", "setting": "human, in vivo", "result": 60, "unit": "%"}, {"measurement": "MTD of capecitabine combined with EKB-569", "setting": "twice daily for 14 days of a 21-day cycle, with EKB-569 50 mg daily", "result": "1,000 mg/m^2"}, {"measurement": "mean terminal half-life", "setting": "[1]; human", "result": "half an hour"}, {"measurement": "time at which Cmax was observed after p.o. administration", "setting": "[1]; human, po", "result": 1, "unit": "h"}, {"measurement": "difference of pharmacokinetic variables, monotherapy vs combination therapy", "setting": "[1]", "result": "no statistically significant difference"}, {"measurement": "half-life", "setting": "clinical", "result": "0.52 ± 0.17", "unit": "h"}, {"measurement": "Tmax", "setting": "clinical", "result": 1, "unit": "h"}]}]}
